Values after ≈ are worked out from the molar mass of the structure shown.
System: Helicobacter pylori (幽门螺杆菌)
Assay: Agar dilution method, MIC against H. pylori
Assay type: cell-based
Conditions: same value for each of 6 strains: 5 random clinical strains (Hp001, Hp003, Hp004, Hp018, Hp036) and standard strain ATCC43504, complete growth inhibition, 37℃, 72 h, microaerobic, read-out: minimum inhibitory concentration (MIC)

CC1(C)S[C@@H]2[C@H](NC(=O)[C@H](N)c3ccccc3)C(=O)N2[C@H]1C(=O)O [氨苄西林]
MIC: 3.3 µg/mL (≈ 9.44 µM)

Source: patent publication CN106344577A, “Fistulains A在抗幽门螺杆菌药物中的应用” (Quanjiao Xianqi Pharmaceutical Technology Co Ltd, priority 2016, dated 2017)
